Here are results for 21 compounds from patent US20260078120A1, “SUBSTITUTED PYRIDOPYRIMIDINONES” (MIRATI THERAPEUTICS, INC., priority 2022, published 2026).

In general, IC50 refers to the midpoint of a concentration-inhibition curve.

Assay [1] has as its system SKBR3 (PI3Kα wild type) cells. In words: CellTiter-Glo 2.0 luminescent cell viability assay, 72 hours, SKBR3 cells. Format: cell-based. Conditions: Homo sapiens, SK-BR-3, 72 h. The method, boiled down:
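Viability measured via CTG luminescence following roughly 72 hours of compound exposure at 37° C. Dosing used a 10 um starting concentration diluted 1:4 over 10 points; percent-of-vehicle data fitted with a variable-slope four-parameter model for IC50.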
(Cellular ATP, detected with luciferase, serves as a proxy for viable cell number.)

Assay [2] has as its system T47D (PI3Kα H1047R mutant) cells. In words: CellTiter-Glo 2.0 luminescent cell viability assay, 72 hours, T47D cells. In kind it is cell-based. Conditions: Homo sapiens, T47D, 72 h. A digest of the protocol:
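Viability was measured by CellTiter-Glo 2.0 luminescence after approximately 72 h of compound exposure at 37° C. Plating was 1000 cells per well the day before dosing, with ten 1:4 dilutions from a 10 µM top concentration. Values as percent of vehicle were fitted by variable-slope log(inhibitor) regression to give IC50.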

The mark [3] stands for this setting: SKBR3 (PI3Kα wild type) cells, CellTiter-Glo, approximately 72 hours, read-out: SKBR3 (WT) Viability IC50.
The mark [4] stands for this setting: T47D (PI3Kα H1047R mutant) cells, CellTiter-Glo, approximately 72 hours, read-out: T47D (H1047R mutant) Viability IC50.

Read-outs that look alike come from different tables or passages of the source.

Turning to `Cc1cc(C(C)Nc2ccccc2C(=O)O)c2nc(-c3cnn(C)c3)cc(=O)n2c1` (stereo not drawn) [Example 11-405, 2-((1-(7-methyl-2-(1-methyl-1H-pyrazol-4-yl)-4-oxo-4H-pyrido[1,2-a]pyrimidin-9-yl)ethyl)amino)benzoic acid], the IC50 in assay [1] (setting [3]) was above 10000 nM; in assay [2] (setting [4]) it was 8380 nM.
The matching figures for `Cc1cc([C@H](C)Nc2ccccc2C(=O)O)c2nc(N3Cc4ccccc4C3)cc(=O)n2c1` [Example 11-406, (S)-2-((1-(2-(isoindolin-2-yl)-7-methyl-4-oxo-4H-pyrido[1,2-a]pyrimidin-9-yl)ethyl)amino)benzoic acid]: above 10000 nM and 864 nM.
For the compound `Cc1cc(C(C)Nc2ccccc2C(=O)O)c2nc(N3CCC3)cc(=O)n2c1` (stereo not drawn) [Example 11-407, 2-((1-(2-(azetidin-1-yl)-7-methyl-4-oxo-4H-pyrido[1,2-a]pyrimidin-9-yl)ethyl)amino)benzoic acid], the IC50 in assay [1] (setting [3]) and in assay [2] (setting [4]) was above 10000 nM in each case.
As for `Cc1cc(C(C)Nc2ccccc2C(=O)O)c2nc(N(C)C)cc(=O)n2c1` (stereo not drawn) [Example 11-408, 2-((1-(2-(dimethylamino)-7-methyl-4-oxo-4H-pyrido[1,2-a]pyrimidin-9-yl)ethyl)amino)benzoic acid], the IC50 in assay [1] (setting [3]) and in assay [2] (setting [4]) was above 10000 nM throughout.
`Cc1cc(C#N)c2nc(N3CCCCC3)cc(=O)n2c1` [Example 11-409, 7-methyl-4-oxo-2-(piperidin-1-yl)-4H-pyrido[1,2-a]pyrimidine-9-carbonitrile]: the IC50 in assay [1] (setting [3]) and in assay [2] (setting [4]) was above 10000 nM throughout.
For the compound `CCC(O)c1cc(C)cn2c(=O)cc(N3CCCCC3)nc12` (stereo not drawn) [Example 11-410, 9-(1-hydroxypropyl)-7-methyl-2-(piperidin-1-yl)-4H-pyrido[1,2-a]pyrimidin-4-one], the IC50 in assay [1] (setting [3]) and in assay [2] (setting [4]) was above 10000 nM in each case.
In the case of `CCC(Nc1ccccc1C(=O)O)c1cc(C)cn2c(=O)cc(N3CCCCC3)nc12` (stereo not drawn) [Example 11-411, 2-((1-(7-methyl-4-oxo-2-(piperidin-1-yl)-4H-pyrido[1,2-a]pyrimidin-9-yl)propyl)amino)benzoic acid], the IC50 in assay [1] (setting [3]) and in assay [2] (setting [4]) was above 10000 nM in each case.
In the case of `Cc1cc(CNc2ccccc2C(=O)O)c2nc(N3CCCCC3)cc(=O)n2c1` [Example 11-412], the IC50 in assay [1] (setting [3]) and in assay [2] (setting [4]) was above 10000 nM each time.
Regarding `Cc1cc(C(C)Nc2ccccc2C(=O)O)c2nc(N3CCCCC3)c(C3CC3)c(=O)n2c1` (stereo not drawn) [Example 11-413, 2-((1-(3-cyclopropyl-7-methyl-4-oxo-2-(piperidin-1-yl)-4H-pyrido[1,2-a]pyrimidin-9-yl)ethyl)amino)benzoic acid], the IC50 was above 10000 nM in assay [1] (setting [3]) and 1650 nM in assay [2] (setting [4]).
As for `Cc1cc([C@H](C)Nc2ccccc2C(=O)O)c2nc(N3CCCCC3)c(C(F)(F)F)c(=O)n2c1` [Example 11-414, (S)-2-((1-(7-methyl-4-oxo-2-(piperidin-1-yl)-3-(trifluoromethyl)-4H-pyrido[1,2-a]pyrimidin-9-yl)ethyl)amino)benzoic acid], the IC50 in assay [1] (setting [3]) was above 10000 nM; in assay [2] (setting [4]) it was 1820 nM.
Take `Cc1cc(C(C)Nc2ccccc2C(=O)O)c2nc(N3CCCCC3)c(C(F)(F)F)c(=O)n2c1` (stereo not drawn) [Example 11-415, 2-((1-(7-methyl-4-oxo-2-(piperidin-1-yl)-3-(trifluoromethyl)-4H-pyrido[1,2-a]pyrimidin-9-yl)ethyl)amino)benzoic acid]: the IC50 in assay [1] (setting [3]) is 890 nM; in assay [2] (setting [4]), 532 nM.
`CC(Nc1ccccc1C(=O)O)c1cc(C(F)(F)F)cn2c(=O)cc(N3CCCCC3)nc12` (stereo not drawn) [Example 11-416, 2-((1-(4-oxo-2-(piperidin-1-yl)-7-(trifluoromethyl)-4H-pyrido[1,2-a]pyrimidin-9-yl)ethyl)amino)benzoic acid]: the figures for the IC50 in assay [1] (setting [3]) and in assay [2] (setting [4]) were above 10000 nM and 9090 nM, respectively.
Consider `C[C@@H](Nc1ccccc1C(=O)O)c1cc(C#N)cn2c(=O)cc(N3CCC(F)(F)CC3)nc12` [Example 11-418, (R)-2-((1-(7-cyano-2-(4,4-difluoropiperidin-1-yl)-4-oxo-4H-pyrido[1,2-a]pyrimidin-9-yl)ethyl)amino)benzoic acid], for which the IC50 in assay [1] (setting [3]) and in assay [2] (setting [4]) was above 10000 nM throughout.
For the compound `CC(Nc1ccccc1C(=O)O)c1cc(C#N)cn2c(=O)cc(N3CCC(F)(F)CC3)nc12` (stereo not drawn) [Example 11-419, 2-((1-(7-cyano-2-(4,4-difluoropiperidin-1-yl)-4-oxo-4H-pyrido[1,2-a]pyrimidin-9-yl)ethyl)amino)benzoic acid], the IC50 in assay [1] (setting [3]) and in assay [2] (setting [4]) was above 10000 nM each time.
With `Cc1cc(C(C)Nc2ccccc2C(=O)O)c2nc(N3CCOCC3)cc(=O)n2c1` (stereo not drawn) [Example 11-420, 2-((1-(7-methyl-2-morpholino-4-oxo-4H-pyrido[1,2-a]pyrimidin-9-yl)ethyl)amino)benzoic acid], the IC50 in assay [1] (read-out: SKBR3 (WT) Viability IC50 (nM)) was above 10000 nM; in assay [2] (read-out: T47D (H1047R mutant) Viability IC50 (nM)), 1310 nM.
Take `Cc1cc(C(C)Nc2ccccc2)c2nc(N3CCOCC3)cc(=O)n2c1` (stereo not drawn) [Example 11-421, 7-methyl-2-morpholino-9-(1-(phenylamino)ethyl)-4H-pyrido[1,2-a]pyrimidin-4-one]: the IC50 in assay [1] (setting [3]) and in assay [2] (setting [4]) was above 10000 nM throughout.
For the compound `C[C@H](Nc1ccccc1C(=O)O)c1cccn2c(=O)cc(N3CCCCC3)nc12` [Example 11-423, (S)-2-((1-(4-oxo-2-(piperidin-1-yl)-4H-pyrido[1,2-a]pyrimidin-9-yl)ethyl)amino)benzoic acid], the IC50 in assay [1] (setting [3]) and in assay [2] (setting [4]) was above 10000 nM throughout.
In the case of `Cc1cc([C@@H](C)Nc2ccccc2C(=O)O)c2nc(N3CCn4ccnc4C3)c(C)c(=O)n2c1` [Example 11-429, (R)-2-((1-(2-(5,6-dihydroimidazo[1,2-a]pyrazin-7(8H)-yl)-3,7-dimethyl-4-oxo-4H-pyrido[1,2-a]pyrimidin-9-yl)ethyl)amino)benzoic acid], the IC50 in assay [1] (setting [3]) is above 10000 nM; in assay [2] (setting [4]), 3140 nM.
The matching figures for `Cc1cc([C@@H](C)Nc2ccccc2C(=O)O)c2nc(N3CCn4cncc4C3)c(C)c(=O)n2c1` [Example 11-430, (R)-2-((1-(2-(5,6-dihydroimidazo[1,5-a]pyrazin-7(8H)-yl)-3,7-dimethyl-4-oxo-4H-pyrido[1,2-a]pyrimidin-9-yl)ethyl)amino)benzoic acid]: above 10000 nM and 4670 nM.
Regarding `Cc1cc([C@@H](C)Nc2ccccc2C(=O)O)c2nc(N3CCn4nccc4C3)c(C)c(=O)n2c1` [Example 11-431, (R)-2-((1-(2-(6,7-dihydropyrazolo[1,5-a]pyrazin-5(4H)-yl)-3,7-dimethyl-4-oxo-4H-pyrido[1,2-a]pyrimidin-9-yl)ethyl)amino)benzoic acid], the IC50 in assay [1] (setting [3]) is above 10000 nM; in assay [2] (setting [4]), 403 nM.
Consider `Cc1cc([C@@H](C)Nc2ccccc2C(=O)O)c2nc(N3CCC(n4cccn4)CC3)c(C)c(=O)n2c1` [Example 11-432, (R)-2-((1-(2-(4-(1H-pyrazol-1-yl)piperidin-1-yl)-3,7-dimethyl-4-oxo-4H-pyrido[1,2-a]pyrimidin-9-yl)ethyl)amino)benzoic acid], for which the IC50 in assay [1] (setting [3]) is above 10000 nM; in assay [2] (setting [4]) it was 122 nM.
